The values that follow come from patent publication US6004967A, “Psoriasis treatment with quinazoline compounds” (priority 1997, dated 1999).

As usually defined, the IC50 is the concentration that gives 50% inhibition.

For data set [1], the system named is psoriatic human keratinocytes. Nature of the data set: Growth of psoriatic human keratinocytes. The class given is cell-based. From the text: Cells and Cell Culture. All tumor cell lines were obtained from the American Type Culture Collection (Rockville, Md.), unless otherwise specified. NIH3T3 mouse fibroblasts overexpressing the EGF receptor, IGF-1 receptor, insulin receptor, PDGF-b receptor, or a chimera of the EGF receptor extracellular domain fused to the Her-2 cytoplasmic domain were engineered using retroviral vectors. These cells will be referred to as 3T3-EGFR, 3T3-IGF1R, 3T3-IR, 3T3-PDGF-bR, and 3T3-EGFR/Her-2, respectively. All cell culture media and supplements were purchased from Gibco Life Technologies (Grand Island, N.Y.) unless otherwise specified. […] Cell lines were maintained under standard conditions in culture media recommended by the ATCC, unless otherwise specified. 3T3-EGFR, 3T3-PDGF-bR, and 3T3-EGFR/Her-2 cells were maintained in DMEM containing 10% calf serum (CS) and 2 mM GLN. 3T3-IGF1R and 3T3-IR cells were maintained in DMEM containing 10% FBS and 2 mM GLN. Keratinocytes were obtained from small biopsy specimens of split-thicknessskin from patients with psoriasis and from healthy control donors.
(§1) In vitro functional studies. […] Cell lines examined in receptor phosphorylation ELISA were 3T3-EGFR, 3T3-EGFR/Her-2, 3T3-PDGF-bR, 3T3-IGF1R, and 3T3-IR. For analysis of DNA replication (measured as incorporation of BrdU) and cell cycle progression, 3T3-EGFR and 3T3-PDGF-bR cell lines were used. Cell growth studies were carried out on A431 (EGF-R+), BT474 (Her-2+), and C6 (PDGF-bR+) cell lines.

A short description of data set [2]: Plasma levels of A1 after topical application in nu/nu mice.
Description: Approximately 60 mg of a 2% (w/w/ointment was applied to the backs of four female mice using a stainless steel spatula. The dose was spread evenly over the back surface of each mouse.
Plasma was prepared from blood samples taken 30 or 60 min. following application (2 mice per time point) and examined by HPLC. In a second experiment, approximated 0.50 mg of the 2% (w/v) ointment was applied in the same manner. […] The lower limit of quantitation for the HPLC assay is 1.0 μg/ml.
The next data set concerns 3T3-EGFR cells. Nature of the data set: EGF-driven cell cycle progression (propidium iodide, FACS). The format is cell-based, mouse. As to conditions: 20 hours. As to the method:
as §1

Data set [3] can be described thus: Plasma concentration after single IP dose. The class given is in vivo. As to conditions: mouse. The protocol:
**Single dose (50 mg/kg), IP, in BALB/c, nu/nu, female mice.

A further data set is described as follows: in vivo. As to conditions: mouse, in vivo.
For the next data set, the system named is BT474. The data set is described as follows: Cell growth (SRB), BT474. Conditions: Homo sapiens, BT-474, 96 h; RTK Her-2, 4 day incubation. The class given is cell-based. The protocol:
In vitro functional studies.
After 4 days, cell density was measured by SRB staining. IC50 values were determined by regression analysis. For these experiments, cell lines whose growth is dependent on naturally-expressed RTK were examined.

For `COc1cc2ncnc(Nc3cccc(Br)c3)c2cc1OC` [A1, 4-(3-Bromophenylamino)-6,7-dimethoxyquinazoline], in data set [1], the “inhibition of psoriatic skin cell / keratinocyte proliferation in vitro (in words)” value was “capable of inhibiting”. The IC99 in data set [1] (Homo sapiens, Keratinocyte, 120 h, read-out: IC99, inhibition of psoriatic keratinocyte proliferation) was approximately 14 µM. Moreover, the IC50 was less than 1000 nM in data set [1] (Homo sapiens, Keratinocyte, read-out: IC50, growth of psoriatic keratinocytes); 34 nM in the data set on 3T3-EGFR cells; 900 nM with BT474. In data set [2] (mouse, plasma, topical or ocular), the concentration at 0.5 h is less than 2000 ng/mL. In addition, in data set [2] (topical 2% ointment, nu/nu mice), the “discomfort or increased grooming behavior” value is recorded as “no discomfort or increased grooming behavior”. Also, the “plasma half-life (in words)” value in data set [3] (in vivo) is on record as “short plasma half-life”. Also, the concentration at 5 min in data set [3] (plasma, single dose 50 mg/kg IP, BALB/c nu/nu female mice, 5 min) was 17900 ± 4300 ng/mL. Also, the concentration at […] in data set [3] (plasma, single dose 50 mg/kg IP, BALB/c nu/nu female mice, 15 min) was determined as 6300 ± 3700 ng/mL. This compound had a concentration at 1 h in data set [3] (plasma, single dose 50 mg/kg IP, BALB/c nu/nu female mice, 60 min) of 2000 ± 900 ng/mL. In addition, in the data set “in vivo”, the “toxicity (in words)” value is recorded as “low toxicity”.
